Experimental data as given in US20230233576A1, “ECLITASERTIB FOR USE IN TREATING CONDITIONS INVOLVING SYSTEMIC HYPERINFLAMMATORY RESPONSE” (priority 2020, published 2023).
Values joined by “and” are separate entries in the source; they are usually repeats but may differ in a detail not shown here. Equal entries are not always repeated.

Tests used:
Assay type in all cases: in vivo, human
[1] = system: C-reactive protein (CRP) levels; experiment: Phase 1b severe COVID-19 study: CRP level; settings: 600 mg; for CRP raw data Mean / CRP relative change from baseline Mean / CRP raw data Median / CRP relative change from baseline Median: observed; for CRP raw data Mean / CRP relative change from baseline Mean: no imputation
[2] = system: adult participants hospitalized for severe COVID-19; experiment: Phase 1b severe COVID-19 study: 7-point clinical scale; settings: 600 mg
Excerpt: Exploratory clinical assessments endpoints included: • Change from baseline in ferritin and LDH at Day 7 and EOT • Proportion of participants per category of the 7-point clinical scale at EOT • Time to improvement by 2 points in category of 7-point clinical scale • Quantitative SARS-COV-2 viral load in blood at baseline and on Day 3, 5, 7 and EOT
The 7-point clinical scale is described below: • 1. Death • 2. Hospitalized, on invasive mechanical ventilation or ECMO • 3. Hospitalized, on non-invasive ventilation or high flow oxygen devices • 4. Hospitalized, requiring supplemental oxygen • 5. Hospitalized, not requiring supplemental oxygen—requiring ongoing medical care (COVID-19 related or otherwise) • 6. Hospitalized, not requiring supplemental oxygen—no longer requires ongoing medical care • 7. Not hospitalized

[3] = system: adult participants hospitalized for severe COVID-19; experiment: Phase 1b severe COVID-19 study: vital signs abnormalities (PCSA); settings: 600 mg, TEAE period
Description: Physical examination including lung auscultation and assessment of consciousness, vital sign, electrocardiogram (ECG) parameters were measured per protocol.
For laboratory parameters (hematology, clinical chemistry, and urinalysis), vital signs, and ECG, incidences of potentially clinically significant abnormality (PCSA) values, actual values and change from baseline were summarized by treatment group.
For all laboratory, vital signs and ECG parameters, raw data and change from baseline were summarized in descriptive statistics by treatment group and scheduled time of measurement, with the exception of AST, ALT and alkaline phosphatase: instead of summarizing data in descriptive statistics, participants' profiles were presented through graphics by treatment group and with a color code to identify sites. The reason was that blood samples were processed by local laboratories with different normal ranges. For the rest of clinical laboratory these parameters it is reasonable to pool data as they are standard procedure and no significant differences in normal ranges were expected.

[4] = Day 03, MMRM, LOCF, Efficacy population
[5] = Day 05, MMRM, LOCF, Efficacy population
[6] = Day 07, MMRM, LOCF, Efficacy population
[7] = Day 15, MMRM, LOCF, Efficacy population
[8] = Kaplan-Meier, Efficacy population
[9] = EOT, Efficacy population (N = 41)

CN1C(=O)[C@@H](NC(=O)c2nnc(Cc3ccccc3)[nH]2)COc2cccnc21 [RIPK1 Inhibitor, (S)-5-benzyl-N-(5-methyl-4-oxo-2,3,4,5-tetrahydropyrido[3,2-b][1,4]oxazepin-3-yl)-4H-1,2,4-triazole-3-carboxamide]
Percent change from baseline in CRP, point estimate [1, 4]: −12.85%
Relative change from baseline in CRP, point estimate (geometric means) [1, 4]: 0.87
CRP raw data Mean ([1]; Day 3, Efficacy population): 59.4 mg/L
CRP relative change from baseline Mean ([1]; Day 3, Efficacy population): 0.58 and 0.581
CRP raw data Median ([1]; Day 3, Efficacy population): 44.4 mg/L
CRP relative change from baseline Median ([1]; Day 3, Efficacy population): 0.384
relative change from baseline in CRP, RIPK1 Inhibitor versus placebo ratio ([1]; Day 3, with imputation of missing data): 0.91
relative change from baseline in CRP, RIPK1 Inhibitor versus placebo ratio ([1]; Day 3, without imputation of missing data): 0.92
Percent change from baseline in CRP, point estimate [1, 5]: −51.43%
Relative change from baseline in CRP, point estimate (geometric means) [1, 5]: 0.49
CRP raw data Mean ([1]; Day 5, Efficacy population): 37.7 mg/L
CRP relative change from baseline Mean ([1]; Day 5, Efficacy population): 0.37 and 0.368
CRP raw data Median ([1]; Day 5, Efficacy population): 24.2 mg/L
CRP relative change from baseline Median ([1]; Day 5, Efficacy population): 0.195
relative change from baseline in CRP, RIPK1 Inhibitor versus placebo ratio ([1]; Day 5, with imputation of missing data): 0.70
relative change from baseline in CRP, RIPK1 Inhibitor versus placebo ratio ([1]; Day 5, without imputation of missing data): 0.73
mean of relative change from baseline in CRP ([1]; Day 7, LOCF imputation): 0.315
median of relative change from baseline in CRP ([1]; Day 7, LOCF imputation): 0.165
Percent change from baseline in CRP, point estimate [1, 6]: −64.81%
Relative change from baseline in CRP, point estimate (geometric means) [1, 6]: 0.35
ratio of the adjusted relative change from baseline in CRP, RIPK1 Inhibitor vs placebo (point estimate) ([1]; Day 7, MMRM, LOCF, Efficacy population, below 1 = larger decrease than placebo): 0.85
observed mean of CRP ([1]; Day 7, missing values imputed with LOCF): 28.1 mg/L
CRP raw data Mean ([1]; Day 7, Efficacy population): 24.2 mg/L
CRP relative change from baseline Mean ([1]; Day 7, Efficacy population): 0.289
CRP raw data Median ([1]; Day 7, Efficacy population): 14.0 mg/L
CRP relative change from baseline Median ([1]; Day 7, Efficacy population): 0.119
Percent change from baseline in CRP, point estimate [1, 7]: −71.76%
Relative change from baseline in CRP, point estimate (geometric means) [1, 7]: 0.28
CRP raw data Mean ([1]; Day 15, Efficacy population): 29.2 mg/L
CRP relative change from baseline Mean ([1]; Day 15, Efficacy population): 0.380
CRP raw data Median ([1]; Day 15, Efficacy population): 9.6 mg/L
CRP relative change from baseline Median ([1]; Day 15, Efficacy population): 0.092
median time for 50% decrease in CRP level relative to baseline [1, 8]: 3 days
participants with 50% decrease from baseline in CRP ([1]; by Day 3): 69.2%
7-point clinical scale category 3, participants [2, 9]: 0 n
7-point clinical scale category 5, participants [2, 9]: 0 n
7-point clinical scale category 6, participants [2, 9]: 0 n
median time to improvement by at least 2 points in the category of 7-point scale [2, 8]: 8 days
participants with a 7-point clinical scale score of 5 or lower ([2]; end of study treatment period or early discontinuation): 15%
participants with systolic blood pressure≤95 mmHg and decrease from baseline≥20 mmHg [3]: 4 participants
PCSA Diastolic Blood Pressure ≤45 mmHg and decrease from baseline ≥10 mmHg ([3]; Safety population): 1/47
PCSA Diastolic Blood Pressure ≥110 mmHg and increase from baseline ≥10 mmHg ([3]; Safety population): 0/47
PCSA Heart Rate ≤50 beats/min and decrease from baseline ≥20 beats/min ([3]; Safety population): 0/47
PCSA Heart Rate ≥120 beats/min and increase from baseline 20 beats/min ([3]; Safety population): 1/47
PCSA Systolic Blood Pressure ≤95 mmHg and decrease from baseline ≥20 mmHg ([3]; Safety population): 4/47
PCSA Systolic Blood Pressure ≥160 mmHg and increase from baseline ≥20 mmHg ([3]; Safety population): 4/47
